From US7358042B2, “Triosephosphate isomerase directed diagnostics and therapeutics for multidrug resistant neoplastic disease” (priority 2003, dated 2008)

Assays:
E3 target cells = conditions: cited from earlier work
[1] = test system: hematological tumor cells; assay: Triosephosphate isomerase vaccination of mice injected with hematological tumor cells; format: in vivo; conditions: mice vaccinated prior to injection of the tumor cells versus not vaccinated
[2] = test system: antigen-positive E3 cell line; conditions: read-out: IC50 (cytotoxicities); cited from earlier work

In the case of `CC(=O)[C@]1(O)Cc2c(O)c3c(c(O)c2[C@@H](O[C@H]2C[C@H](N)[C@H](O)[C@H](C)O2)C1)C(=O)c1ccccc1C3=O` [Ida, Idarubicin], the IC50 (E3 target cells) is listed as 120 nM.

With “triosephosphate isomerase: purified full length murine triosephosphate isomerase protein used as vaccine antigen, may be administered with an adjuvant” the tumor size [1] was “smaller”.

In the case of `O=c1[nH]c(=O)n([C@H]2C[C@H](O)[C@@H](CO)O2)cc1F` [FUDR, 5-fluoro-2′-deoxyuridine], the IC50 [2] is listed as 0.4 nM.
